Patent publication US10662150B2, “Sulfonic acid salt composition and use thereof for color stabilization” (L. BRÜGGEMANN GMBH & CO. KG, priority 2016, dated 2020)

Assay: Aqueous solubility according to OECD 105

Molecule	Solubility in water at 23° C.
O=C([O-])C(O)S(=O)(=O)[O-].[Zn+2] (centres unmarked) [Example 1, Zinc-Salt of 2-Hydroxy-2-Sulfonatoacetic Acid]	39%
2-hydroxy-2-sulfonatoacetic acid disodium salt	7%
